In patent US10568822B2, “Melanogenesis inhibitor comprising d-pantothenyl alcohol, and skin-whitening cosmetic containing same melanogenesis inhibitor” (POLA CHEMICAL INDUSTRIES, INC., priority 2014, dated 2020):

Tests used:
human normal melanocytes = assay: Melanogenesis inhibition experiment (14C-2-thiouracil incorporation); type: cell-based; settings: for Melanin Amount (%) Sample (2): 1% plant extract or 0.1 μg/mL existing skin-whitening compound alone, ratio to control; for synergistic effect of a melanogenesis inhibitory action: in combination with D-pantothenyl alcohol, conclusion from Table 2
Method: According to the method described below, 2-thiouracil (^14C-labeled 2-thiouracil in the present test) which is specifically incorporated into melanin in the melanin synthesis process within cells was used to evaluate the melanogenesis inhibitory action. With a complete medium for melanocyte culture (Invitrogen Corporation) used in a 24-well plate, human normal melanocytes (Kurabo Industries, Ltd.) were seeded in each well at a concentration of 6.0×10^4 cells/well/0.5 mL. Under a 5% carbon dioxide atmosphere, the culture was conducted at 37° C. for 24 hours. Then, replacement was made such that a 0.5 mL medium containing D-pantothenyl alcohol at 0 mM or 1 mM was in each of three wells for each concentration and, to these […] wells, 0.5 μCi/well of 2-[2-^14C] thiouracil (Daiichi Clarity Co., Ltd.) was further added. And it was further cultured for 3 days under the same conditions as the aforementioned culture conditions. After completion of the culture, the culture medium was removed from each well, which was washed with PBS (phosphate-buffered saline), and the number of cells was measured using the WST-8 reagent (Dojindo Laboratories). The WST-8 reagent was removed from each well, which was washed with PBS, and using 100 (w/v) % trichloroacetic acid (Wako Pure Chemical Industries, Ltd.), the cells were separated from the bottom of the wells, to which water was then added for dilution so that the concentration of the trichloroacetic acid could be 10 (w/v) %, and which were allowed to stand in a refrigerator for 30 minutes. After the cells were recovered by centrifugation, the amount of ^14C-thiouracil in the cells recovered from each well was measured with a liquid scintillation counter (Aloka Co., Ltd.).
Relative to the radiation doses of the cells cultured in the media containing 0 mM D-pantothenyl alcohol (control), the radiation doses of the cells cultured in the media containing 1 mM D-pantothenyl alcohol were each obtained in percentage as the amount of melanin (%). In other words, it is possible to determine that the smaller the radiation dose incorporated into each cell is, the smaller the amount of melanin is, and accordingly, it is possible to determine that the melanin inhibition titer of the added ingredient is larger.
(§1) While 0 mM or 0 μM D-pantothenyl alcohol was used as a control similarly, the 1 mM D-pantothenyl alcohol in <Experiment 1> was replaced with each of the following samples (1) to (3) for experimenting.

[1] = tested on: human normal keratinocytes; assay: Keratinocyte cell proliferation experiment (WST-8); type: cell-based; settings: for Cell Proliferation Rate (%) Sample (2): 1% plant extract or 0.1 μg/mL existing skin-whitening compound alone, ratio to control; for synergistic effect of a keratinocyte cell proliferation action: in combination with D-pantothenyl alcohol, conclusion from Table 2
Method: According to the method described below, the cell proliferation promoting action was evaluated. With a complete medium for keratinocyte culture (Kurabo Industries, Ltd.) used in a 24-well plate, human normal keratinocytes (Kurabo Industries, Ltd.) were seeded in each well at a concentration of 1.0×10^4 cells/well/1 mL. Under a 5% carbon dioxide atmosphere, the culture was conducted at 37° C. for 24 hours. Then, replacement was made such that a 1 mL medium containing D-pantothenyl alcohol at 0 μM, 15 μM, or 150 μM was in each of three wells for each concentration. And it was further cultured for 2 days under the same conditions as the aforementioned culture conditions. After completion of the culture, 20 μL of the WST-8 reagent (Dojindo Laboratories) was added to each well, and color reaction was allowed at 37° C. for 3 hours. After the reaction, absorbances at 450 nm and 650 nm were measured using a microplate reader, Benchmark Plus (Bio-Rad Laboratories), and the 450 nm absorbance measurement minus the 650 nm absorbance measurement was calculated to give a cell proliferation measurement.
Relative to the cell proliferation measurements for the wells cultured in the media containing 0 μM D-pantothenyl alcohol (control), the cell proliferation measurements for the wells cultured in the media containing D-pantothenyl alcohol were each obtained in percentage as a cell proliferation rate (%). In other words, it is possible to determine that the larger the absorbance value is, the higher the cell proliferation rate is, and accordingly, it is possible to determine that the cell proliferation promotion titer of the added ingredients is larger.
as §1
In addition, the 15 μM and the 150 μM D-pantothenyl alcohol in <Experiment 2> were replaced with the aforementioned samples (1) to (3) respectively for experimenting. Note that the amount of melanin (%) and the cell proliferation rate (%) in Table 2 are both a ratio to the control, as described in Experiment 1 and Experiment 2.

Row | Compound | Melanin Amount (%) Sample (2) (human normal melanocytes) [%] | synergistic effect of a melanogenesis inhibitory action (human normal melanocytes) | Cell Proliferation Rate (%) Sample (2) [1] [%] | synergistic effect of a keratinocyte cell proliferation action [1] | Melanin Amount (%) Sample (1) (human normal melanocytes; 1 mM D-pantothenyl alcohol alone, ratio to 0 mM control) [%] | melanogenesis inhibitory action (human normal melanocytes; Experiment 1, 1 mM vs 0 mM, FIG. 1, result in words) | Cell Proliferation Rate (%) Sample (1) ([1]; 1 mM D-pantothenyl alcohol alone, ratio to 0 μM control) [%] | keratinocyte cell proliferation action ([1]; Experiment 2, 15 μM or 150 μM vs 0 μM, FIG. 2, result in words)
1 | CCCCc1ccc(O)cc1O [4-n-butyl resorcinol] | 93.2 | synergistic effect | 120.3 | synergistic effect | – | – | – | –
2 | c1ccc(C(c2ccccc2)(c2ccccc2)n2ccnc2)cc1 [Compound 1, 1-(triphenylmethyl) imidazole] | 93.1 | synergistic effect | 112.1 | synergistic effect | – | – | – | –
3 | O=C(N[C@@H](CO)C(=O)O)c1ccccc1 [Compound 31, N-benzoyl-L-serine] | 94.6 | synergistic effect | 118.7 | synergistic effect | – | – | – | –
4 | CSCCC(NC(=O)c1ccc(C)cc1)C(=O)O (stereo not shown) [Compound 45, N-(toluyl) methionine] | 93.4 | – | 113.2 | – | – | – | – | –
5 | CC(C)(CO)[C@@H](O)C(=O)NCCCO [D-pantothenyl alcohol] | – | – | – | – | 69.8 | has a melanogenesis inhibitory action | 123.3 | has a keratinocyte cell proliferation action
6 | C[C@H]1[C@H](C)CC[C@]2(C(=O)O)CC[C@]3(C)C(=CC[C@@H]4[C@@]5(C)CCC(OP(=O)(O)O)C(C)(C)[C@@H]5CC[C@]43C)[C@H]12 (stereo partly shown) [Ursolic acid phosphate ester, ursolic acid phosphate ester] | 98.4 | synergistic effect | 118.6 | synergistic effect | – | – | – | –
